Experimental data published in paper PMC12281475, “Mediator Kinase Inhibitor Selectivity and Activity in Colorectal Cancer” (ACS Chemical Biology, 2025).

System: COLO205 cells
Test: Phospho-proteome profiling (CDK-motif antibody enrichment, LC-MS/MS)
Format: cell-based, human
Conditions: 6 H
Source text: We phospho-proteome profiled COLO205 cells to identify Mediator kinase substrates following chemical inhibition of Mediator kinase activity. Given the confirmed CDK8/19 selectivity of our compounds in binding and enzymatic activity assays, we employed a pool of antibodies selective for the proline-rich motifs phosphorylated by the CDK family to enrich potential CDK8/19 substrates for LC-MS/MS analysis.
Adherent COLO205 cells were lysed with a urea buffer, lysates were reduced with DTT, alkylated with iodoacetimide and digested with trypsin-tosylphenylalanyl chloromethyl ketone. Digested peptides were immunoprecipitated using a pool of motif antibodies from Cell Signaling Technologies (US) comprising: phospho-MAPK substrate (PXS*P or S*PXR/K, #2325, RRID:AB_331820), phospho-CDKs substrate ((K/H)-S*P, #2324; RRID:AB_2244779), phospho-PLK binding motif (ST*P, #5243; RRID:AB_10891778) and phospho-tPE motif (T*PE, #3004; RRID:AB_10890649)-of phospho-MAPK (2325), phospho-CDK (2324), phospho-PLK (5243) and phospho-tPE (C3004) motif-recognizing antibodies immobilized onto protein A/G beads. Immunoprecipitated peptides were analyzed using an LTQ-Orbitrap-Velos. Sequences were assigned to the MS/MS spectra and evaluated using SEQUEST 3G and SORCERER 2 (Sage-N Research v4.0, Milpitas). Quantitative data was evaluated and clustered in Spotfire Decision Site (www.spotfire.tibco.com) and normalized using quartile normalization. Functional annotation and pathway analysis used DAVID (https://david.ncifcrf.gov/). […]
Phospho-proteome analyses
Adherent COLO205 cells were washed with PBS and cells lysed using urea lysis buffer (9 M Urea, 20 mM HEPES, pH 8.0, 1 mM beta-glycerophosphate, 1 mM sodium vanadate, 2.5 mM sodium pyrophosphate) and stored at -80 °C prior to analysis. The supernatants were reduced with 100 mM DTT for 30 minutes at 55 °C, followed by alkylation with 50 mM iodoacetimide for 15 minutes at ambient temperature in the dark.
The samples were diluted in 20 mM HEPES, pH 8.0 and digested overnight with 10 ug/mL trypsin-tosylphenylalanyl chloromethyl ketone in 1 mM HCl. Digested peptides were acidified with 1% formic acid and then desalted over 360-mg SEP PAK C18 columns (Waters, UK). Peptides were eluted with 40% acetonitrile in 0.125% formic acid, dried under a vacuum and the lyophilised peptides used for immunoprecipitation.
A pool of motif antibodies from Cell Signaling Technologies (US) comprising: phospho-MAPK substrate (PXS*P or S*PXR/K, #2325, RRID:AB_331820), phospho-CDKs substrate ((K/H)S*P, #2324; RRID:AB_2244779), phospho-PLK binding motif (ST*P, […]
RRID:AB_10890649), were immobilised onto protein A/G beads overnight at 4 °C. The lyophilised peptides were resuspended in MOPS buffer (50 mM MOPS, pH 7.2, 10 mM KH2PO4, 50 mM NaCl) and centrifuged for 5 mins at 13,500 rpm in an Eppendorf benchtop microcentrifuge. The supernatants were incubated with the motif-bound beads for 2.5 hours at 4 °C . The beads were harvested by centrifugation at 4000 rpm in an Eppendorf benchtop microcentrifuge for 5 mins, washed with MOPS buffer twice and washed again 5 times with deionised water. The peptides were eluted off the beads using 0.125% formic acid, were desalted and dried under a vacuum. The lyophilised immunoprecipitated peptides were resuspended in 0.125% formic acid and separated on a capillary column packed with Magic C18 AQ reversed-phase resin.
Peptides were eluted using a 72-minute linear gradient of acetonitrile in 0.125% formic acid delivered at 280nL/min. Samples were analysed using an LTQ-Orbitrap-Velos.
MS Parameter Settings were: MS Run Time 96 min, MS1 Scan Range (300.0 – 1500.00), Top 20 MS/MS (Min Signal 500, Isolation Width 2.0, Normalized Coll.
Charge State Rejection Enabled, Charge State 1+ Rejected, Dynamic Exclusion Enabled, Repeat Count 1, Repeat Duration 35.0, Exclusion List Size 500, Exclusion Duration 40.0, Exclusion Mass Width Relative to Mass, Exclusion Mass Width 10ppm). […]

[1] = MCM4 peptide 69 - fsSppqmhssaipldfdvSspltygtpssr - 98
[2] = MCM4 peptide 86 - vsSpltygtpssr - 98
[3] = MDC1 peptide 1645 - SSvkTpkpvepaaSdlepftptdqsvTpeaiaqggqsk - 1682
[4] = MDC1 peptide 1649 - tpkpvepaasdlepfTptdqsvTpeaiaqggqsk - 1682
[5] = MED13 peptide 551 - TpStpqsqhfyqmpTpdplvpskpmedr - 578
[6] = MED13 peptide 551 - tpstpqSqhfyqmpTpdplvpskpmedr - 578
[7] = MED14 peptide 1106 - agnwpgSpqvsgpSpaar - 1123
[8] = MED26 peptide 295 - gSvpSpSprpqaldatqvpSplplaqpsTppvr - 328
[9] = MED26 peptide 295 - gsvpSpsprpqaldatqvpSplplaqpStppvrr - 328
[10] = MED26 peptide 295 - gsvpspsprpqaldatqvpSplplaqpStppvrr -328
[11] = MED26 peptide 295 - gsvpspsprpqaldatqvpSplplaqpsTppvr - 328
[12] = MLLT6 peptide 446 - palsatpvpadeTpetglkek - 466
[13] = NDRG3 peptide 327 - srthstSSSlgsgeSpfsr - 345
[14] = NEDD4L peptide 549 - avkdTlSnpqSpqpSpYnSpkpqhk - 593
[15] = NOP2 peptide 173 - eaaagiqwSeeeTedeeeekevTpesgppk - 202
[16] = NOSIP peptide 158 - vlpsfwipslTpeak - 172
[17] = NRIP1 peptide 537 - tsviespstnrtTpvSTpplltssk - 561
[18] = PBK peptide 18 - ksvlcstpTinipaSpfmqk - 37
[19] = PBK peptide 19 - svlcStptinipaSpfmqk - 37
[20] = PBK peptide 19 - svlcsTpTinipaspfmqk - 37
[21] = PDE12 peptide 200 - eakpgaaepevgvpsslspSSpSsswtetdveer - 233
[22] = PLEC peptide 4274/4384 - SSsvgsSssypiSpavsr - 4291/4401
[23] = PLEKHA6 peptide 453 - shsvprspSqgsysr - 467
[24] = PPP1R18 peptide 192 - wrlSpgeTper - 202
[25] = PRC1 peptide 487/447 - klntttmsnatanssirpifggtvyhSpvsr - 517/477

Cn1cc(-c2ccc(-c3cncc(Cl)c3N3CCC4(CCNC4=O)CC3)cc2)cn1 [CCT251545] was tested, and the “MEAN MS SIGNAL CMPD 1 6 H” value (MCM4 peptide 69 - fSsppqmhssaipldfdvSsplTygtpssr - 98) was 71644, the “CMPD 1/DMSO” value [1] was 0.313 and the “MEAN MS SIGNAL CMPD 1 6 H” value [1] was 16633. The “CMPD 1/DMSO” value [2] was 0.545, the “MEAN MS SIGNAL CMPD 1 6 H” value [2] was 23881 and the “CMPD 1/DMSO” value [3] was 0.574. For the same molecule, the “MEAN MS SIGNAL CMPD 1 6 H” value [3] was 46837, the “CMPD 1/DMSO” value [4] was 0.539 and the “MEAN MS SIGNAL CMPD 1 6 H” value [4] was 44678. The “CMPD 1/DMSO” value [5] was 0.359, the “MEAN MS SIGNAL CMPD 1 6 H” value [5] was 9156 and the “CMPD 1/DMSO” value [6] was 0.429. The “MEAN MS SIGNAL CMPD 1 6 H” value [6] was 13284, the “CMPD 1/DMSO” value [7] was 0.142 and the “MEAN MS SIGNAL CMPD 1 6 H” value [7] was 17584. For the same molecule, the “CMPD 1/DMSO” value [8] was 0.215, the “MEAN MS SIGNAL CMPD 1 6 H” value [8] was 56284 and the “CMPD 1/DMSO” value [9] was 0.344. The “MEAN MS SIGNAL CMPD 1 6 H” value [9] was 14569, the “CMPD 1/DMSO” value [10] was 0.404 and the “MEAN MS SIGNAL CMPD 1 6 H” value [10] was 11273. For the same molecule, the “CMPD 1/DMSO” value [11] was 0.324, the “MEAN MS SIGNAL CMPD 1 6 H” value [11] was 51395 and the “CMPD 1/DMSO” value [12] was 0.499. The “MEAN MS SIGNAL CMPD 1 6 H” value [12] was 13974, the “CMPD 1/DMSO” value [13] was 0.635 and the “MEAN MS SIGNAL CMPD 1 6 H” value [13] was 12713. For the same molecule, the “CMPD 1/DMSO” value [14] was 2.036, the “MEAN MS SIGNAL CMPD 1 6 H” value [14] was 126084 and the “CMPD 1/DMSO” value [15] was 0.618. The “MEAN MS SIGNAL CMPD 1 6 H” value [15] was 97741, the “CMPD 1/DMSO” value [16] was 0.562 and the “MEAN MS SIGNAL CMPD 1 6 H” value [16] was 425932. For the same molecule, the “CMPD 1/DMSO” value [17] was 1.857, the “MEAN MS SIGNAL CMPD 1 6 H” value [17] was 157739 and the “CMPD 1/DMSO” value [18] was 0.492. For the same molecule, the “MEAN MS SIGNAL CMPD 1 6 H” value [18] was 411168, the “CMPD 1/DMSO” value [19] was 0.553 and the “MEAN MS SIGNAL CMPD 1 6 H” value [19] was 167495. The “CMPD 1/DMSO” value [20] was 0.535, the “MEAN MS SIGNAL CMPD 1 6 H” value [20] was 63854 and the “CMPD 1/DMSO” value [21] was 0.255. The “MEAN MS SIGNAL CMPD 1 6 H” value [21] was 32966, the “CMPD 1/DMSO” value [22] was 0.605 and the “MEAN MS SIGNAL CMPD 1 6 H” value [22] was 787072. The “CMPD 1/DMSO” value [23] was 1.818, the “MEAN MS SIGNAL CMPD 1 6 H” value [23] was 361701 and the “CMPD 1/DMSO” value [24] was 0.562. The “MEAN MS SIGNAL CMPD 1 6 H” value [24] was 109529, the “CMPD 1/DMSO” value [25] was 0.592 and the “MEAN MS SIGNAL CMPD 1 6 H” value [25] was 508312.
